Where two headings read alike, the source gives them in different places.
Key:
[1] = system: MES-SA uterine sarcoma cells; test: Polypeptide uptake by flow cytometry of Dox fluorescence; format: cell-based, human
Protocol: In order to test whether the induction of ELP aggregation with hyperthermia can enhance the cellular uptake of the polypeptide, MES-SA uterine sarcoma cells were incubated with Tat-ELP-GFLG-DOX (SEQ ID NO: 3) for 1 h at either 37 or 42° C. Cells were then analyzed by flow cytometry, using the natural DOX fluorescence to quantify the amount of drug in the cells. When treated with the ELP1 containing construct, which aggregates at 40° C., the amount of drug delivered to the cells increases almost 2-fold (FIG. 10). […] This illustrates that the enhanced uptake observed after hyperthermia is the result of the ELP phase transition, not nonspecific effects of hyperthermia.
1.6. Polypeptide Uptake. Cells were treated with 20 μM Tat-ELP1-GFLG-Dox (SEQ ID NO: 3), Tat-ELP2-GFLG-Dox (SEQ ID NO: 3), or control polypeptides lacking the Tat sequence as described above. Duplicate plates were treated for 1 h at 37° C. and 42° C. Cells were rinsed with PBS and harvested using nonenzymatic cell dissociation buffer (Invitrogen), centrifuged for 2 min, and resuspended in 0.5 ml PBS. Total uptake of the doxorubicin labeled polypeptides was measured using the intrinsic Dox fluorescence by a Cytomics FC 500 flow cytometer (Beckman Coulter, Fullerton, Calif.). Forward versus side scatter gating was used to remove cell debris from the analysis, and Dox fluorescence was measured using FL3. Each histogram was a unimodal peak (n=5000 cells), and the peak mean was normalized to propidium standard beads.
3.3. Cellular Uptake of ELP-delivered Doxorubicin. MES-SA uterine sarcoma cells were used in this study to evaluate the efficiency of ELP-mediated cellular delivery of doxorubicin. […] After harvesting the cells with non-enzymatic cell dissociation buffer to prevent degradation of polypeptide attached to the cell surface, the non-fixed cells were analyzed by flow cytometry to measure the Dox fluorescence. […] Cellular fluorescence was increased over 2 fold when the MES-SA cells were treated with Tat-ELP1-GFLG-Dox (SEQ ID NO: 3) at 42° C. rather than 37° C. […]

[2] = system: MES-SA uterine sarcoma cells; format: cell-based, human; settings: for Inhibition of cell proliferation: 5 μM, counted after 72 h; for IC50: cells counted after 72 h, ± SEM
Protocol: MES-SA cells were treated for 1 h at 37 or 42° C. with 5 μM Tat-ELP-GFLG-DOX (SEQ ID NO: 3); ELP-GFLG-DOX (SEQ ID NO: 3), which lacks the Tat cell penetrating peptide; or Tat-ELP-GFLG (SEQ ID NO: 3), which is not labeled with DOX. After the 1 h treatment, cells were rinsed and fresh media was replaced for 72 h. Cells remaining after 72 h were collected by trypsinization and counted using a Coulter counter. […] Similarly, the control polypeptide which lacks the Tat sequence was not cytotoxic, likely because it cannot efficiently enter the cells.
1.8 Cytotoxicity Assay. Cells were plated and treated for 1 h at 37° C. and 42° C. as described above with Tat-ELP1-GFLG-Dox (SEQ ID NO: 3), Tat-ELP2-GFLG-Dox (SEQ ID NO: 3), or control polypeptides lacking the Tat sequence or unlabeled with Dox. Cells were rinsed and harvested 72 h after treatment by trypsinization, collected by centrifugation, and resuspended in isotonic buffer. Cell number was determined using a Coulter counter and expressed as a percentage of untreated cells.
1.10. Data Fitting and Statistical Analysis. The concentration dependence of the Tt was fit with a logarithmic equation using Microsoft Excel. Dose-response curves were fit using exponential or sigmoid equations as applicable using Microcal Origin in order to determine the 50% inhibitory concentration (IC50). […] The significance of the thermal targeting index was assessed by comparing the normothermia group with the hyperthermia group using a paired Student's t-test in Microsoft Excel. p values of less than 0.05 were considered statistically significant. Polypeptide uptake and caspase activation were analyzed for statistical differences using one-way ANOVA analyses with post-hoc Scheffe's tests for pair-wise comparisons of treatment groups. The statistical significance level was p<0.05.
3.5. Cytotoxicity of ELP-delivered Dox. The growth-inhibitory activity of Tat-ELP-GFLG-Dox (SEQ ID NO: 3) was evaluated in the MES-SA uterine sarcoma cell line. MES-SA cells were treated for 1 h at 37° C. or 42° C. with various concentrations of Tat-ELP-GFLG-Dox (SEQ ID NO: 3); ELP-GFLG-Dox (SEQ ID NO: 3), which lacks the Tat cell penetrating peptide, the Tat-ELP-GFLG (SEQ ID NO: 3) polypeptide without Dox; or free Dox. After the 1 h treatment, the cells were rinsed and fresh media was replaced for 72 h. Cells remaining after 72 h were rinsed, collected by trypsinization, and counted using a Coulter counter. […] The toxicity of the unlabeled Tat-ELP-GFLG (SEQ ID NO: 3) protein was negligible when treated below the Tt.

Tat-ELP1-GFLG-Dox
Increase of drug delivered to cells at 42° C. versus 37° C. ([1]; 10 μM, 1 h (FIG. 10)): ~2 fold | Increase of cellular fluorescence at 42° C. versus 37° C. ([1]; 20 μM, 1 h): over 2 fold | Uptake relative to ELP1-GFLG-Dox ([1]; 20 μM, 1 h, 42° C.): 6 fold | Cytotoxicity in words [2]: cytotoxic at 37° C., but high concentrations were needed | Enhancement of cytotoxicity (reduction of IC50) by hyperthermia [2]: twenty-fold | Inhibition of cell proliferation ([2]; 1 h at 37° C.): little toxicity | Inhibition of cell proliferation ([2]; 1 h at 42° C.): complete inhibition of cell proliferation | IC50 ([2]; 1 h treatment at 37° C., read-out: IC50 (37° C.)): 21.9 ± 8.2 µM | IC50 ([2]; 1 h treatment at 42° C., read-out: IC50 (42° C.)): 1.1 ± 0.1 µM
